{"source": "paper PMC8703873", "about": "“Structure and Activity of a Selective Antibiofilm Peptide SK-24 Derived from the NMR Structure of Human Cathelicidin LL-37” (Pharmaceuticals, 2021)", "key": {"E. faecium V284-17": {"test_system": "E. faecium V284-17", "assay_type": "cell-based, Enterococcus faecium", "conditions": "V284-17"}, "S. aureus USA300": {"test_system": "S. aureus USA300", "assay_type": "cell-based, Staphylococcus aureus", "experimental": "(§1) The antibiotic-resistant pathogens used in this study include the Gram-positive bacteria Enterococcus faecium V286-17 and Staphylococcus aureus USA300 LAC and the Gram-negative bacteria Klebsiella pneumoniae E406-17, Acinetobacter baumannii B28-16, Pseudomonas aeruginosa E411-17, and Escherichia coli E423-17. All bacteria were cultivated in tryptic soy broth (TSB) at 37 °C, 220 rpm.\n(§2) The antibacterial activity of peptides was evaluated using a standard broth microdilution protocol with minor modifications. In brief, peptides were made at various concentrations, 10 μL per well in a 96-well polystyrene microplate. Logarithmic phase bacterial cultures (i.e., optical density (OD) at 600 nm ≈ 0.5) were diluted to 0.001 OD, and aliquots of 90 μL were added to each well. Untreated bacterial culture and medium were included as positive and negative controls, respectively. Plates were incubated at 37 °C overnight and read at 630 nm using a ChroMate Microplate Reader (Awareness Technology, Palm City, FL, USA). […] Our previously designed peptide 17BIPHE2 [32] was included as a positive control, and RI-10, a peptide without antibacterial activity in rich media, was utilized as a negative control."}, "K. pneumoniae E406-17": {"test_system": "K. pneumoniae E406-17", "assay_type": "cell-based, Klebsiella pneumoniae", "conditions": "E406-17", "experimental": "as §1, §2"}, "A. baumannii B28-16": {"test_system": "A. baumannii B28-16", "assay_type": "cell-based, Acinetobacter baumannii", "experimental": "as §1, §2"}, "P. aeruginosa E411-17": {"test_system": "P. aeruginosa E411-17", "assay_type": "cell-based, Pseudomonas aeruginosa", "conditions": "E411-17", "experimental": "as §1, §2"}, "E. coli E423-17": {"test_system": "E. coli E423-17", "assay_type": "cell-based, Escherichia coli", "experimental": "as §1, §2"}, "[1]": {"test_system": "clinical and antibiotic-resistant pathogens (panel of Table 3)", "assay_type": "cell-based", "conditions": "all six pathogens", "experimental": "as §1, §2"}, "[2]": {"test_system": "A. baumannii B28-16 preformed biofilms", "assay": "Disruption of preformed biofilms (XTT)", "assay_type": "cell-based, Acinetobacter baumannii", "experimental": "(§3) The antibiofilm activities of peptides against the preformed biofilms of A. baumannii B28-16 and S. aureus USA300 LAC were evaluated as follows. Bacteria in the logarithmic growth phase were adjusted to a cell density of 10^5 colony forming unit (CFU)/mL. Two hundred microliter cells were seeded into each well of the 96-well plates. The plates were incubated at 37 °C to allow for the formation of biofilm for 24, 48, and 72 h, respectively. The planktonic cells were then removed, followed by a wash. The biofilms were then treated with 20 µL of 10× two-fold diluted peptides and 180 µL of fresh TSB media for 24 h at 37 °C. Cultures treated with water without peptide served as the positive control, and media treated with water was used as the negative control. To quantify the antibiofilm activity of the peptides, the XTT [2, 3-bis (2-methyloxy-4-nitro-5-sulfophenyl)-2H-tertazolium-5-carboxanilide] assay staining method was used to quantitate the live cells. Absorbance was read at 450 nm using a ChroMate microliter plate reader. The percentage biofilm growth for the peptide was plotted by assuming 100% biofilm growth in untreated bacterial control wells. Data were represented as mean ± standard deviation (SD). The data are statistically significant at p < 0.05. Plots were generated using GraphPad Prism v7 (GraphPad Software, San Diego, CA, USA)."}, "[3]": {"test_system": "S. aureus USA300 LAC preformed biofilms", "assay": "Disruption of preformed biofilms (XTT)", "assay_type": "cell-based, Staphylococcus aureus", "experimental": "as §3"}, "S. aureus USA300 LAC [4]": {"test_system": "S. aureus USA300 LAC", "assay": "Membrane permeabilization (propidium iodide)", "assay_type": "cell-based, Staphylococcus aureus", "conditions": "peptide 8 µM; propidium iodide fluorescence, 2 h, PBS, 37 °C", "experimental": "Membrane permeabilization was evaluated as described. In brief, bacteria were inoculated and grown overnight. A second inoculation was made and let bacteria grow to the exponential phase. Bacteria were then spun, washed, and resuspended in the same volume of PBS. A series of peptide solutions (10×) was made via two-fold dilution in a 96-well plate (10 µL each). All wells were aliquoted with 2 µL of propidium iodide (20 µM), followed by adding 88 µL of S. aureus USA300 or A. baumannii B28-16 (OD600 ~0.11 in PBS). The plate was incubated at 37 °C with continuous shaking at 100 rpm in a FLUOstar Omega microplate reader (BMG Labtech Inc., Cary, NC, USA). Fluorescence was recorded every 5 min for 2 h with excitation and emission wavelengths of 485 and 620 nm. The data were analyzed by the vendor’s software using averaged values from duplicated experiments."}, "S. aureus USA300 LAC [5]": {"test_system": "S. aureus USA300 LAC", "assay": "Membrane depolarization (DiBAC4(3))", "assay_type": "cell-based, Staphylococcus aureus", "conditions": "peptide 8 µM; similar trends at 16 and 32 µM; DiBAC4(3) fluorescence", "experimental": "The experiment was conducted as described. In brief, an overnight culture of S. aureus USA300 LAC was subcultured in a fresh TSB medium and grown to the exponential phase. Cells were spun using centrifugation and washed twice with PBS, and resuspended in twice the volume of PBS containing 25 mM glucose and incubated at 37 °C for 15 min. For membrane depolarization measurements, 500 nM (final concentration) of the dye DiBAC4 (3) (bis-(1,3- dibutylbarbituric acid) trimethine oxonol) (AnaSpec, San Jose, CA, USA) was added and vortexed gently. Aliquots of 90 μL of the energized bacteria solution were loaded to the wells, and the plate was fed into a FLUOstar Omega microplate reader. Fluorescence was read for 20 min at excitation and emission wavelengths of 485 and 520 nm, respectively, to get dye normalization. Then 10 μL of diluted peptide solutions were added and gently mixed. Fluorescence readings were recorded for 40 min, where Triton X-100 (0.1%) was used as a positive control."}, "Human red blood cells": {"test_system": "Human red blood cells", "assay": "Hemolytic assay", "assay_type": "cell-based", "conditions": "red cells of human, 1 h", "experimental": "Human red blood cells (hRBCs, the UNMC Blood Bank) were washed three to five times with saline (Fisher Scientific, Waltham, MA, USA) at 800 g for 10 min each time, until the supernatant was clear. The supernatant was discarded, and hRBCs were suspended in saline at a final density of 2%. Ninety microliters of hRBC suspensions were added to each well of 96-well plates containing 10 µL of 10× serially diluted peptides. After incubation at 37 °C for 1 h, the plates were centrifuged at 1500 rpm for 5 min. About 80 µL of the supernatant was carefully pipetted to a new 96-well microplate and read at 545 nm to measure the amount of hemoglobin released. The positive control was 1% Triton X-100, and the negative control was saline. The percentage of hRBC lysis was calculated based on the hemoglobin released."}}, "note": "Non-standard residues stand in square brackets, D forms with d. Residues, ends and D or L forms follow the SMILES beside them. Bip = N[C@@H](Cc1ccc(-c2ccccc2)cc1)C(=O)O"}
{"smiles": "CC(C)C[C@H](NC(=O)[C@H](CC(N)=O)NC(=O)[C@H](CCCNC(=N)N)NC(=O)[C@@H](CC(C)C)NC(=O)[C@H](Cc1ccc(-c2ccccc2)cc1)NC(=O)[C@H](CC(=O)O)NC(=O)[C@H](CCCCN)NC(=O)[C@@H](CC(C)C)NC(=O)[C@H](CCCNC(=N)N)NC(=O)[C@H](CCC(N)=O)NC(=O)[C@@H](NC(=O)[C@@H](CC(C)C)NC(=O)[C@H](CCCNC(=N)N)NC(=O)[C@H](CCCCN)NC(=O)[C@H](Cc1ccc(-c2ccccc2)cc1)NC(=O)CN)C(C)C)C(=O)N[C@H](C(N)=O)C(C)C", "note": "[Peptide 17BIPHE2] (H-G[Bip]KR[dL]VQR[dL]KD[Bip][dL]RNLV-NH2; N-terminus assumed)", "values": [{"measurement": "MIC", "setting": "E. faecium V284-17", "value": 2, "unit": "µM"}, {"measurement": "MIC", "setting": "S. aureus USA300", "value": 4, "unit": "µM"}, {"measurement": "MIC", "setting": "K. pneumoniae E406-17", "value": "4 to 8", "unit": "µM"}, {"measurement": "MIC", "setting": "A. baumannii B28-16", "value": "4 to 8", "unit": "µM"}, {"measurement": "MIC", "setting": "P. aeruginosa E411-17", "value": 8, "unit": "µM"}, {"measurement": "MIC", "setting": "E. coli E423-17", "value": 4, "unit": "µM"}, {"measurement": "MIC range over the pathogens of Table 3", "setting": "[1]", "value": "2 to 8", "unit": "µM"}, {"measurement": "Biofilm disruption", "setting": "[2]; 72 h preformed biofilms, peptide 64 μM, highest concentration tested", "value": "~ 70%"}, {"measurement": "Disruption of 48 h biofilms", "setting": "[2]; biofilms established for 48 h, 24 h treatment", "value": "dose-dependent biofilm disruption"}, {"measurement": "Reduction of 24 h biofilms", "setting": "[2]; biofilms established in 24 h, 24 h treatment", "value": "dose-dependent manner"}, {"measurement": "Antibiofilm effect on 24 h preformed biofilms", "setting": "[3]; 24 h preformed biofilms of S. aureus USA300, XTT", "value": "antibiofilm effect in a dose-dependent manner"}, {"measurement": "Staphylococcal biofilm remaining (reduced to)", "setting": "[3]; 24 h preformed biofilms, peptide 32 μM, relative to untreated control = 100%", "value": "~ 25%"}, {"measurement": "Membrane permeation", "setting": "S. aureus USA300 LAC [4]", "value": "more powerful"}, {"measurement": "Membrane depolarization ability (order, words)", "setting": "S. aureus USA300 LAC [5]", "value": "GI-20 > 17BIPHE2 > GF-17~SK-24 > LL-37"}, {"measurement": "HC50 (50% hemolytic concentration)", "setting": "Human red blood cells", "value": "~ 200 µM"}]}
